Source: ChEMBL document CHEMBL4118176, “N-aryl-piperidine-4-carboxamides as a novel class of potent inhibitors of MALT1 proteolytic activity” (Bioorg Med Chem Lett, 2018)
In brackets after ≈: the same amount, converted by molar mass.

How the values were obtained:
[1] = target: T1, Mucosa-associated lymphoid tissue lymphoma translocation protein 1 (Homo sapiens, UniProt Q9UDY8); test: Inhibition of MALT1 (unknown origin) using Ac-Trp-Leu-Arg-Ser-Arg'Cys(PT14)-NH2 as substrate preincubated for 60 mins followed by substrate addition measured after 60 mins by fluorescence assay
T1 sequence (Q9UDY8 whole entry): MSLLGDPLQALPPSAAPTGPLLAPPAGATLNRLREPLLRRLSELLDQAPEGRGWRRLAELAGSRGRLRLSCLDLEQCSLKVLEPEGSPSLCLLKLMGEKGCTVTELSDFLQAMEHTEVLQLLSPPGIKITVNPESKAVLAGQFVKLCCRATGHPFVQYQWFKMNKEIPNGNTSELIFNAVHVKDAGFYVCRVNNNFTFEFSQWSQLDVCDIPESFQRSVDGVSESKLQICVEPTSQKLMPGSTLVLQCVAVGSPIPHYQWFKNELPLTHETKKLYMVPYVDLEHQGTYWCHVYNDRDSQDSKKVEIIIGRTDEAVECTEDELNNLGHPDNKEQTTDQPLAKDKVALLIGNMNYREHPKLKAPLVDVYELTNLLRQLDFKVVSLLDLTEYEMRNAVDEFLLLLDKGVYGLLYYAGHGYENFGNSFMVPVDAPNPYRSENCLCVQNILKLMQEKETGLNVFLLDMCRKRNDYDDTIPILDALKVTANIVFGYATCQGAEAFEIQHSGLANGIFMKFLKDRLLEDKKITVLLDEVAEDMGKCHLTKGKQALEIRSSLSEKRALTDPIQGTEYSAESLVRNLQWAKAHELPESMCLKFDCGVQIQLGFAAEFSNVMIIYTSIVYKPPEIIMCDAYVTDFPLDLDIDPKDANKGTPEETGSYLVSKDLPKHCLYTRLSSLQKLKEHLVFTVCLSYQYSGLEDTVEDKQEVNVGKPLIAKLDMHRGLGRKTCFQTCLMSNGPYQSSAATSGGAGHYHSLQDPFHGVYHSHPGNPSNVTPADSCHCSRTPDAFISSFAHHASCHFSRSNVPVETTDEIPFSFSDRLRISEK

[2] = target: Mucosa-associated lymphoid tissue lymphoma translocation protein 1 (Homo sapiens, UniProt Q9UDY8); test: Inhibition of cIAP2 fused MALT1 (unknown origin) expressed in HEK293 cells assessed as suppression of NF-kB activation after 24 hrs by luciferase reporter gene assay; type: cell-based
[3] = target: T1, Mucosa-associated lymphoid tissue lymphoma translocation protein 1; test: Inhibition of MALT1 in human OCI-LY3 cells assessed a decrease in BCL10 cleavage after 24 hrs by ELISA; type: cell-based
[4] = Solubility of the compound in buffer at pH 4; type: physicochemical
[5] = Solubility of the compound in buffer at pH 6.8; type: physicochemical
[6] = Clearance in rat liver microsomes; type: ADME, microsome; conditions: read-out: CLH
[7] = Clearance in rat hepatocytes assessed per 10^6 cells; type: ADME, cell-based, Hepatocyte
[8] = Clearance in rat at 1 mg/kg, iv or 3 mg/kg, po; type: ADME, organism-based; conditions: in vivo
[9] = Volume of distribution at steady state in rat at 1 mg/kg, iv or 3 mg/kg, po; type: ADME, organism-based; conditions: in vivo, read-out: Vdss
[10] = Half life in rat at 1 mg/kg, iv or 3 mg/kg, po; type: ADME, organism-based; conditions: in vivo
[11] = AUC in rat at 1 mg/kg, iv; type: ADME, organism-based; conditions: in vivo
[12] = Oral bioavailability in rat at 3 mg/kg; type: ADME, organism-based; conditions: in vivo
[13] = target: T1, Mucosa-associated lymphoid tissue lymphoma translocation protein 1; test: Inhibition of MALT1 in PMA-stimulated human Jurkat T cells assessed as reduction in IL2 level pretreated for 30 mins followed by PMA-stimulation measured after 5.5 hr by bioluminescence assay; type: cell-based
OCI-Ly3 = test: Antiproliferative activity against human OCI-LY3 cells after 72 hrs by CellTiterGlo assay; type: functional, cell-based; conditions: OCI-Ly3, 72 h
BJAB = test: Antiproliferative activity against human BJAB cells after 72 hrs by CellTiterGlo assay; type: functional, cell-based
[14] = Apparent permeability from apical to basolateral side in human Caco2 cells; type: ADME, cell-based; conditions: Caco-2

## O=C(Nc1ccc(F)c(Cl)c1)C1CCN(c2ncccn2)CC1
[1]
  IC50: 1620 nM
[2]
  IC50: 3100 nM
[3]
  EC50: 5400 nM

## Cc1nc(C)n(-c2ccc(NC(=O)C3CCN(c4ncccc4[N+](=O)[O-])CC3)cc2Cl)n1
[1]
  IC50: 184 nM
[2]
  IC50: 640 nM
[4]
  solubility: 170 µM (≈ 77.5 µg/mL)
[5]
  solubility: 7 µM (≈ 3.19 µg/mL)
[6]
  CLint scaled: 29 mL/min/kg
[7]
  CLH: 4.1 µL/min/1e6 cells
[8]
  clearance: 43 mL/min/kg
[9]
  Vd: 1.1 L/kg
[10]
  half-life: 30 min
[11]
  AUC: 0.914 µM·h
[12]
  bioavailability: 46%

## O=C(Nc1ccccc1)C1CCN(c2ncccc2Cl)CC1
[1]
  IC50: 4700 nM

## CC(C)CN1CCC(C(=O)Nc2ccc(F)c(Cl)c2)CC1
[1]
  IC50: > 100000 nM

## O=C(NC1CCCCC1)C1CCN(c2ncccc2Cl)CC1
[1]
  IC50: > 100000 nM

## O=C(Nc1ccc(F)c(Cl)c1)C1CCN(c2nccnc2Cl)CC1
[1]
  IC50: 100 nM
[2]
  IC50: 290 nM
[3]
  EC50: 400 nM

## COc1ncc(NC(=O)C2CCN(c3ncccc3Cl)CC2)cc1Cl
[1]
  IC50: 13 nM
[2]
  IC50: 190 nM
[3]
  EC50: 450 nM

## O=C(Nc1cccc(Cl)c1)C1CCN(c2ncccc2Cl)CC1
[1]
  IC50: 210 nM
[2]
  IC50: 1590 nM
[3]
  EC50: 3400 nM

## O=C(Nc1ccc(F)c(Cl)c1)C1CCN(c2ccccc2)CC1
[1]
  IC50: 820 nM
[2]
  IC50: 3200 nM
[3]
  EC50: 9200 nM

## Cc1ccc(NC(=O)C2CCN(c3ncccc3Cl)CC2)cc1Cl
[1]
  IC50: 54 nM
[2]
  IC50: 3700 nM
[4]
  solubility: < 4 µM
[5]
  solubility: < 4 µM
[6]
  CLint scaled: 81 mL/min/kg
[7]
  CLH: 173 µL/min/1e6 cells
[8]
  clearance: 320 mL/min/kg
[9]
  Vd: 21.4 L/kg
[10]
  half-life: 120 min
[11]
  AUC: 0.143 µM·h

## O=C(Nc1ccc(F)c(Cl)c1)C1CCN(c2ncccc2Cl)CC1
[1]
  IC50: 28 nM
[2]
  IC50: 1350 nM
[3]
  EC50: 1500 nM

## N#Cc1cccnc1N1CCC(C(=O)Nc2ccc(F)c(Cl)c2)CC1
[1]
  IC50: 420 nM
[2]
  IC50: 2700 nM
[3]
  EC50: 2100 nM

## O=C(Nc1cnc(-n2nccn2)c(Cl)c1)C1CCN(c2ncccc2Cl)CC1
[1]
  IC50: 4 nM
[2]
  IC50: 90 nM
[3]
  EC50: 230 nM
[13]
  IC50: 50 nM
OCI-Ly3
  EC50: 1400 nM
BJAB
  EC50: > 10000 nM

## Nc1cccnc1N1CCC(C(=O)Nc2cnc(-n3nccn3)c(Cl)c2)CC1
[1]
  IC50: 7 nM
[2]
  IC50: 90 nM
[3]
  EC50: 560 nM
[13]
  IC50: 80 nM
OCI-Ly3
  EC50: 3600 nM
BJAB
  EC50: > 10000 nM

## O=C(Nc1ccc(F)c(Cl)c1)C1CCN(c2ccccn2)CC1
[1]
  IC50: 1900 nM

## Cc1cn(-c2cc(NC(=O)C3CCN(c4ncccc4Cl)CC3)cc(C(F)(F)F)c2)cn1
[1]
  IC50: 340 nM
[2]
  IC50: 3000 nM
[4]
  solubility: 690 µM (≈ 320 µg/mL)
[5]
  solubility: 16 µM (≈ 7.42 µg/mL)
[14]
  Papp A→B: 7.2 ×10⁻⁶ cm/s
[6]
  CLint scaled: 60.2 mL/min/kg
[7]
  CLH: 18.8 µL/min/1e6 cells
[8]
  clearance: 56 mL/min/kg
[9]
  Vd: 8.7 L/kg
[10]
  half-life: 144 min
[11]
  AUC: 0.623 µM·h
[12]
  bioavailability: 46%

## CNC(=O)c1ncn(-c2ccc(NC(=O)C3CCN(c4ncccc4Cl)CC3)cc2Cl)n1
[1]
  IC50: 21 nM
[2]
  IC50: 140 nM
[3]
  EC50: 210 nM
[4]
  solubility: 8 µM (≈ 3.79 µg/mL)
[5]
  solubility: < 4 µM
[14]
  Papp A→B: 8.2 ×10⁻⁶ cm/s
[6]
  CLint scaled: 59.8 mL/min/kg
[7]
  CLH: 228 µL/min/1e6 cells
[8]
  clearance: 282 mL/min/kg
[9]
  Vd: 7.5 L/kg
[10]
  half-life: 36 min
[11]
  AUC: 0.125 µM·h

## O=C(Nc1ccc(F)c(Cl)c1)C1CCN(Cc2ccc(F)cc2)CC1
[1]
  IC50: > 100000 nM

## Nc1cccnc1N1CCC(C(=O)Nc2ccc(F)c(Cl)c2)CC1
[1]
  IC50: 100 nM
[2]
  IC50: 420 nM
[3]
  EC50: 540 nM

## N#Cc1ccnc(N2CCC(C(=O)Nc3ccc(F)c(Cl)c3)CC2)c1
[1]
  IC50: 9000 nM

## Nc1cccnc1N1CCC(C(=O)Nc2ccc(-n3nccn3)c(Cl)c2)CC1
[1]
  IC50: 35 nM
[2]
  IC50: 110 nM
[3]
  EC50: 190 nM
OCI-Ly3
  EC50: 2000 nM
BJAB
  EC50: > 10000 nM
[4]
  solubility: 48 µM (≈ 19.1 µg/mL)
[5]
  solubility: < 4 µM
[14]
  Papp A→B: 19.4 ×10⁻⁶ cm/s
[6]
  CLint scaled: 102 mL/min/kg
[8]
  clearance: 259 mL/min/kg
[9]
  Vd: 4.1 L/kg
[10]
  half-life: 18 min
[11]
  AUC: 0.161 µM·h
